“And” between values parts separate entries of the source, which are not always exact repeats. Equal values may be shown once. Inconclusive results and toxic doses are left out.
Test system: L1210 leukemia ip in BDF1 mice, survival T/C
Experiment: NCI In Vivo Anticancer Drug Screen. Data for tumor model L1210 Leukemia (intraperitoneal) in B6D2F1 (BDF1) mice
Conditions: higher = longer survival
Summary of the method: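 In this screen, tumor-bearing mice given compound are compared to those given vehicle, and their survival values are reported as a treated-to-control quotient.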

[1] = endpoint: mean survival time, dose: 100.0 mg/kg/injection, schedule: Q04DX002 (ip), vehicle: Klucel (hydroxypropylcellulose) (HPC)
[2] = endpoint: mean survival time, dose: 200.0 mg/kg/injection, schedule: Q04DX002 (ip), vehicle: Klucel (hydroxypropylcellulose) (HPC)
[3] = endpoint: mean survival time, dose: 400.0 mg/kg/injection, schedule: Q04DX002 (ip), vehicle: Klucel (hydroxypropylcellulose) (HPC)
[4] = endpoint: mean survival time, dose: 100.0 mg/kg/injection, schedule: Q01DX009 (ip), vehicle: Klucel (hydroxypropylcellulose) (HPC)
[5] = endpoint: mean survival time, dose: 200.0 mg/kg/injection, schedule: Q01DX009 (ip), vehicle: Klucel (hydroxypropylcellulose) (HPC)
[6] = endpoint: mean survival time, dose: 400.0 mg/kg/injection, schedule: Q01DX009 (ip), vehicle: Klucel (hydroxypropylcellulose) (HPC)
[7] = endpoint: mean survival time, dose: 100.0 mg/kg/injection, schedule: Q04DX003 (ip), vehicle: saline with Tween-80
[8] = endpoint: mean survival time, dose: 200.0 mg/kg/injection, schedule: Q04DX003 (ip), vehicle: saline with Tween-80
[9] = endpoint: mean survival time, dose: 400.0 mg/kg/injection, schedule: Q04DX003 (ip), vehicle: saline with Tween-80
[10] = endpoint: mean survival time, dose: 100.0 mg/kg/injection, schedule: Q01DX001 (ip), vehicle: carboxymethylcellulose (CMC)
[11] = endpoint: mean survival time, dose: 100.0 mg/kg/injection, schedule: Q04DX003 (ip), vehicle: carboxymethylcellulose (CMC)
[12] = endpoint: mean survival time, dose: 200.0 mg/kg/injection, schedule: Q01DX001 (ip), vehicle: carboxymethylcellulose (CMC)
[13] = endpoint: mean survival time, dose: 200.0 mg/kg/injection, schedule: Q04DX003 (ip), vehicle: carboxymethylcellulose (CMC)

COc1cc2c[n+](C)c3c4cc5c(cc4ccc3c2cc1OC)OCO5
T/C (endpoint: mean survival time, dose: 1.0 mg/kg/injection, schedule: Q01DX009 (ip), vehicle: saline): 109 % of control and 120 % of control
T/C (endpoint: mean survival time, dose: 10.0 mg/kg/injection, schedule: Q01DX009 (ip), vehicle: saline): 118 % of control
T/C (endpoint: mean survival time, dose: 40.0 mg/kg/injection, schedule: Q01DX009 (ip), vehicle: saline): 121 % of control
T/C (endpoint: mean survival time, dose: 64.0 mg/kg/injection, schedule: Q01DX009 (ip), vehicle: saline): 117 % of control and 121 % of control
T/C (endpoint: mean survival time, dose: 80.0 mg/kg/injection, schedule: Q04DX003 (ip), vehicle: saline): 150 % of control
T/C [1]: 111 % of control
T/C [2]: 111 % of control
T/C [3]: 107 % of control
T/C (endpoint: median survival time, dose: 1.0 mg/kg/injection, schedule: Q03HX024 (ip), vehicle: saline): 114 % of control
T/C (endpoint: median survival time, dose: 2.0 mg/kg/injection, schedule: Q03HX016 (ip), vehicle: saline): 124 % of control
T/C (endpoint: median survival time, dose: 4.0 mg/kg/injection, schedule: Q03HX008 (ip), vehicle: saline): 121 % of control
T/C (endpoint: median survival time, dose: 4.0 mg/kg/injection, schedule: Q03HX016 (ip), vehicle: saline): 119 % of control
T/C (endpoint: median survival time, dose: 8.0 mg/kg/injection, schedule: Q04DX003 (ip), vehicle: saline): 103 % of control
T/C (endpoint: median survival time, dose: 8.0 mg/kg/injection, schedule: Q08DX002 (ip), vehicle: saline): 105 % of control
T/C (endpoint: median survival time, dose: 16.0 mg/kg/injection, schedule: Q01DX009 (oral), vehicle: saline): 105 % of control
T/C (endpoint: median survival time, dose: 16.0 mg/kg/injection, schedule: Q03HX008 (ip), vehicle: saline): 121 % of control
T/C (endpoint: median survival time, dose: 16.0 mg/kg/injection, schedule: Q04DX003 (ip), vehicle: saline): 101 % of control
T/C (endpoint: median survival time, dose: 16.0 mg/kg/injection, schedule: Q08DX002 (ip), vehicle: saline): 103 % of control
T/C (endpoint: median survival time, dose: 32.0 mg/kg/injection, schedule: Q01DX001 (ip), vehicle: saline): 121 % of control
T/C (endpoint: median survival time, dose: 32.0 mg/kg/injection, schedule: Q01DX009 (oral), vehicle: saline): 109 % of control
T/C (endpoint: median survival time, dose: 32.0 mg/kg/injection, schedule: Q04DX003 (ip), vehicle: saline): 101 % of control
T/C (endpoint: median survival time, dose: 64.0 mg/kg/injection, schedule: Q01DX001 (ip), vehicle: saline): 112 % of control
T/C (endpoint: median survival time, dose: 64.0 mg/kg/injection, schedule: Q01DX009 (ip), vehicle: saline): 112 % of control
T/C (endpoint: median survival time, dose: 64.0 mg/kg/injection, schedule: Q01DX009 (oral), vehicle: saline): 103 % of control
T/C (endpoint: median survival time, dose: 64.0 mg/kg/injection, schedule: Q04DX003 (ip), vehicle: saline): 101 % of control
T/C (endpoint: median survival time, dose: 128.0 mg/kg/injection, schedule: Q01DX001 (ip), vehicle: saline): 121 % of control
T/C (endpoint: median survival time, dose: 128.0 mg/kg/injection, schedule: Q01DX009 (oral), vehicle: saline): 102 % of control
T/C (endpoint: median survival time, dose: 128.0 mg/kg/injection, schedule: Q04DX003 (ip), vehicle: saline): 87 % of control
T/C (endpoint: median survival time, dose: 128.0 mg/kg/injection, schedule: Q08DX002 (ip), vehicle: saline): 101 % of control
T/C (endpoint: median survival time, dose: 256.0 mg/kg/injection, schedule: Q01DX009 (oral), vehicle: saline): 100 % of control
T/C (endpoint: median survival time, dose: 512.0 mg/kg/injection, schedule: Q01DX009 (oral), vehicle: saline): 105 % of control

Clc1ccc(N=Cc2ccc(C=Nc3ccc(Cl)c(Cl)c3)cc2)cc1Cl
T/C (endpoint: mean survival time, dose: 100.0 mg/kg/injection, schedule: Q04DX003 (ip), vehicle: Klucel (hydroxypropylcellulose) (HPC)): 97 % of control
T/C (endpoint: mean survival time, dose: 200.0 mg/kg/injection, schedule: Q01DX009 (ip), vehicle: saline sonified): 89 % of control
T/C (endpoint: mean survival time, dose: 200.0 mg/kg/injection, schedule: Q04DX003 (ip), vehicle: Klucel (hydroxypropylcellulose) (HPC)): 89 % of control
T/C (endpoint: mean survival time, dose: 400.0 mg/kg/injection, schedule: Q04DX003 (ip), vehicle: Klucel (hydroxypropylcellulose) (HPC)): 96 % of control

O=[N+]([O-])c1ccc(F)c(CNc2ncnc3c2ncn3C2CCCCO2)c1 (stereo unspecified)
T/C [4]: 100 % of control
T/C [5]: 106 % of control
T/C [6]: 100 % of control

CCCCCCCCCCCCOc1ccc2ccccc2c1
T/C [7]: 97 % of control
T/C [8]: 95 % of control
T/C [9]: 108 % of control

Cc1ccc(S/N=C/c2c(O)ccc3ccccc23)cc1
T/C (endpoint: mean survival time, dose: 100.0 mg/kg/injection, schedule: Q04DX002 (ip), vehicle: other): 91 % of control
T/C (endpoint: mean survival time, dose: 200.0 mg/kg/injection, schedule: Q04DX002 (ip), vehicle: other): 102 % of control
T/C (endpoint: mean survival time, dose: 400.0 mg/kg/injection, schedule: Q04DX002 (ip), vehicle: other): 94 % of control

Nc1nc(N)c(N=Nc2ccccc2)c(=O)[nH]1
T/C (endpoint: mean survival time, dose: 50.0 mg/kg/injection, schedule: Q01DX001 (ip), vehicle: carboxymethylcellulose (CMC)): 88 % of control
T/C (endpoint: mean survival time, dose: 50.0 mg/kg/injection, schedule: Q04DX003 (ip), vehicle: carboxymethylcellulose (CMC)): 94 % of control
T/C [10]: 90 % of control
T/C [11]: 93 % of control
T/C [12]: 93 % of control
T/C [13]: 94 % of control

Cc1ccc(-n2c(O)c(N=Nc3ccc(Cl)cc3)c(=O)n(-c3ccc(Br)cc3)c2=S)cc1
T/C (endpoint: mean survival time, dose: 50.0 mg/kg/injection, schedule: Q01DX001 (ip), vehicle: Klucel (hydroxypropylcellulose) (HPC)): 103 % of control
T/C (endpoint: mean survival time, dose: 100.0 mg/kg/injection, schedule: Q01DX001 (ip), vehicle: Klucel (hydroxypropylcellulose) (HPC)): 105 % of control
T/C (endpoint: mean survival time, dose: 200.0 mg/kg/injection, schedule: Q01DX001 (ip), vehicle: Klucel (hydroxypropylcellulose) (HPC)): 108 % of control

CN1CCCC1=Nc1ccc([N+](=O)[O-])cc1
T/C [4]: 104 % of control
T/C [5]: 108 % of control
T/C [6]: 102 % of control

O=C(CSc1ncc2ccccn12)c1ccccc1
T/C (endpoint: mean survival time, dose: 100.0 mg/kg/injection, schedule: Q04DX002 (ip), vehicle: saline with Tween-80): 106 % of control
T/C (endpoint: mean survival time, dose: 200.0 mg/kg/injection, schedule: Q04DX002 (ip), vehicle: saline with Tween-80): 92 % of control
T/C (endpoint: mean survival time, dose: 400.0 mg/kg/injection, schedule: Q04DX002 (ip), vehicle: saline with Tween-80): 95 % of control

O=C1Cc2cccc3cccc1c23
T/C [7]: 102 % of control
T/C [8]: 106 % of control
T/C [9]: 104 % of control

COc1ccc(C(c2ccc(OC)cc2)C(c2ccc(OC)cc2)c2ccc(OC)cc2)cc1
T/C [1]: 98 % of control
T/C [2]: 106 % of control
T/C [3]: 103 % of control

NS(=O)(=O)c1ccc(NC(=O)Nc2ccc(F)cc2)cc1
T/C [10]: 99 % of control
T/C (endpoint: mean survival time, dose: 100.0 mg/kg/injection, schedule: Q01DX009 (ip), vehicle: carboxymethylcellulose (CMC)): 94 % of control and 101 % of control
T/C (endpoint: mean survival time, dose: 100.0 mg/kg/injection, schedule: Q04DX002 (ip), vehicle: carboxymethylcellulose (CMC)): 92 % of control and 100 % of control
T/C [11]: 93 % of control
T/C [12]: 96 % of control
T/C (endpoint: mean survival time, dose: 200.0 mg/kg/injection, schedule: Q01DX009 (ip), vehicle: carboxymethylcellulose (CMC)): 94 % of control and 100 % of control
T/C (endpoint: mean survival time, dose: 200.0 mg/kg/injection, schedule: Q04DX002 (ip), vehicle: carboxymethylcellulose (CMC)): 100 % of control and 89 % of control
T/C [13]: 104 % of control
T/C (endpoint: mean survival time, dose: 400.0 mg/kg/injection, schedule: Q01DX001 (ip), vehicle: carboxymethylcellulose (CMC)): 99 % of control
T/C (endpoint: mean survival time, dose: 400.0 mg/kg/injection, schedule: Q01DX009 (ip), vehicle: carboxymethylcellulose (CMC)): 94 % of control and 101 % of control
T/C (endpoint: mean survival time, dose: 400.0 mg/kg/injection, schedule: Q04DX002 (ip), vehicle: carboxymethylcellulose (CMC)): 100 % of control and 102 % of control
T/C (endpoint: mean survival time, dose: 400.0 mg/kg/injection, schedule: Q04DX003 (ip), vehicle: carboxymethylcellulose (CMC)): 104 % of control

COC(=O)c1ccc(O)cc1
T/C (endpoint: mean survival time, dose: 100.0 mg/kg/injection, schedule: Q04DX002 (ip), vehicle: saline): 96 % of control
T/C (endpoint: mean survival time, dose: 200.0 mg/kg/injection, schedule: Q04DX002 (ip), vehicle: saline): 100 % of control
T/C (endpoint: mean survival time, dose: 400.0 mg/kg/injection, schedule: Q04DX002 (ip), vehicle: saline): 100 % of control

C=CCOc1ccnc(OCC=C)n1
T/C (endpoint: mean survival time, dose: 100.0 mg/kg/injection, schedule: Q01DX009 (ip), vehicle: saline): 108 % of control
T/C (endpoint: mean survival time, dose: 100.0 mg/kg/injection, schedule: Q04DX003 (ip), vehicle: saline): 105 % of control
T/C (endpoint: mean survival time, dose: 200.0 mg/kg/injection, schedule: Q01DX009 (ip), vehicle: saline): 101 % of control
T/C (endpoint: mean survival time, dose: 200.0 mg/kg/injection, schedule: Q04DX003 (ip), vehicle: saline): 102 % of control
T/C (endpoint: mean survival time, dose: 400.0 mg/kg/injection, schedule: Q01DX009 (ip), vehicle: saline): 87 % of control
T/C (endpoint: mean survival time, dose: 400.0 mg/kg/injection, schedule: Q04DX003 (ip), vehicle: saline): 105 % of control

Source: PubChem BioAssay AID248 (DTP/NCI, 2004)
